Experimental data: US7345058B2, “Pyrazoles” (Hoffmann-La Roche Inc., priority 2005, dated 2008)

target: Purified human HSD1 (Homo sapiens, UniProt P28845); test: In vitro inhibition of 11β-HSD1 (time-resolved fluorescence, cortisone to cortisol); format: biochemical; settings: purified human HSD1, cortisone substrate, incubated at 37° C. for 30 min
Experimental: Purified human HSD1 was diluted in 50 mM Tris-HCl, 100 mM NaCl, 0.1 mg/ml BSA, 0.02% Lubrol, 20 mM MgCl2, 10 mM glucose 6-phosphate, 0.4 mM NADPH, 60 U/ml glucose 6-phosphate dehydrogenase to a concentration of 1.5 ug/ml (Enzyme Solution). Cortisone (100 uM) in DMSO was diluted to 1 uM with 50 mM Tris-HCl, 100 mM NaCl (Substrate Solution). Testing compounds (40 uM) in DMSO were diluted 3 fold in series in DMSO and further diluted 20 fold in Substrate Solution. Enzyme Solution (10 ul/well) was added into 384 well microtiter plates followed by diluted compound solutions (10 ul/well) and mixed well. Samples were then incubated at 37° C. for 30 min. EDTA/biotin-cortisol solution (10 ul/well) in 28 mM EDTA, 100 nM biotin-cortisol, 50 mM Tris-HCl, 100 mM NaCl was then added followed by 5 ul/well of anti-cortisol antibody (3.2 ug/ml) in 50 mM Tris-HCl, 100 mM NaCl, 0.1 mg/ml BSA and the solution was incubated at 37° C. for 30 min. Five ul per well of Eu-conjugated anti-mouse IgG (16 nM) and APC-conjugated streptavidin (160 nM) in 50 mM Tris-HCl, 100 mM NaCl, 0.1 mg/ml BSA were added and the solution was incubated at room temperature for 2 hours. Signals were quantitated by reading time-resolved fluorescence on a Victor 5 reader (Wallac).
Percent inhibition of HSD 1 activity by an agent at various concentrations was calculated by the formula % Inhibition=100*[1−(Fs−Fb)/(Ft−Fb)], where: • Fs is the fluorescence signal of the sample which included the agent, • Fb is the fluorescence signal in the absence of HSD1 and agent, • Ft is the fluorescence signal in the presence of HSD1, but no agent.
The inhibitory activities of test compounds were determined by the IC50s, or the concentration of compound that gave 50% inhibition.

Chain of Purified human HSD1 (P28845 whole entry): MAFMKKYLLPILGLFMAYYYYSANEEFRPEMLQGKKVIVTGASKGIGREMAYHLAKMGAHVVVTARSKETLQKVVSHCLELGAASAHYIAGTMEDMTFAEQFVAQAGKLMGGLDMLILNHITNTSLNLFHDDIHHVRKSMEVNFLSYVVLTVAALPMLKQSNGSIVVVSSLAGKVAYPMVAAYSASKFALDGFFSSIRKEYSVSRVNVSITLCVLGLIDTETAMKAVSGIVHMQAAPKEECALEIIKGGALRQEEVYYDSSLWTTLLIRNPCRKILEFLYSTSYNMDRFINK

Compound	IC50
Cn1ncc(C(=O)N2CCCC3CCCCC32)c1-c1cccc(O)c1 (stereo not shown) [Example 59, [5-(3-Hydroxy-phe-nyl)-1-methyl-1H-pyra-zol-4-yl]-(octa-hydro-quinolin-1-yl)-meth-anone]	700 nM
Cn1ncc(C(=O)N2CCCC3CCCCC32)c1-c1ccc(CO)cc1 (stereo not shown) [Example 67, [5-(4-Hydroxy-methyl-phenyl)-1-meth-yl-1H-pyra-zol-4-yl]-(octa-hydro-quinolin-1-yl)-meth-anone]	121 nM
CCC1CCCCN1C(=O)c1cnn(C)c1-c1ccccc1 (stereo not shown) [Example 107, (2-Ethyl-piperidin-1-yl)-(1-meth-yl-5-phe-nyl-1H-pyrazol-4-yl)-methanone]	260 nM
Cn1ncc(C(=O)N2CCCC3CCCCC32)c1-c1ccc(C(F)(F)F)c(Cl)c1 (stereo not shown) [Example 52, [5-(3-Chloro-4-tri-fluoromethyl-phenyl)-1-meth-yl-1H-pyra-zol-4-yl]-(octa-hydro-quinolin-1-yl)-meth-anone]	195 nM
Cn1ncc(C(=O)N2CCC(Cl)C3CCCCC32)c1-c1ccccc1 (stereo not shown) [Example 36]	600 nM
Cn1ncc(C(=O)N2CCCC3CCCCC32)c1-c1cnc2ccccc2c1 (stereo not shown) [Example 19]	189 nM
Cn1ncc(C(=O)N2CCCC3CCCCC32)c1-c1ccc([N+](=O)[O-])cc1 (stereo not shown) [Example 55, [1-Methyl-5-(4-ni-tro-phenyl)-1H-pyra-zol-4-yl]-(octa-hydro-quinolin-1-yl)-methanone]	552 nM
Cn1ncc(C(=O)N2CCCC(Cc3ccccc3)C2)c1-n1cccc1 (stereo not shown) [Example 106, (3-Benzyl-piperidin-1-yl)-(1-meth-yl-5-pyrrol-1-yl-1H-py-razol-4-yl)-methanone]	1480 nM
CSc1ccc(-c2c(C(=O)N3CCCC4CCCCC43)cnn2C)cc1 (stereo not shown) [Example 33]	78 nM
CCOc1ccc(-c2c(C(=O)N3CCCC4CCCCC43)cnn2C)c(Cl)c1 (stereo not shown) [Example 82, [5-(2-Chloro-4-eth-oxy-phenyl)-1-meth-yl-1H-pyrazol-4-yl]-(octa-hydro-quinolin-1-yl)-meth-anone]	21 nM
Cc1c(Cl)cccc1-c1c(C(=O)N2CCCC3CCCCC32)cnn1C (stereo not shown) [Example 46, [5-(3-Chloro-2-meth-yl-phenyl)-1-meth-yl-1H-pyrazol-4-yl]-(octa-hydro-quinolin-1-yl)-meth-anone]	38 nM
Cn1ncc(C(=O)NC2CCCCCCC2)c1-n1cccc1 [Example 96, 1-Methyl-5-pyrrol-1-yl-1H-py-razole-4-carboxylic acidcyclooctylamide]	58 nM
Cn1ncc(C(=O)N2CCCC3CCCCC32)c1-c1ccc(F)c(Cl)c1 (stereo not shown) [Example 39, [5-(3-Chloro-4-fluoro-phenyl)-1-meth-yl-1H-pyrazol-4-yl]-(octa-hydro-quinolin-1-yl)-meth-anone]	208 nM
CC(C)c1cccc(-c2c(C(=O)N3CCCC4CCCCC43)cnn2C)c1 (stereo not shown) [Example 12, [5-(3-Isopropyl-phenyl)-1-methyl-1H-py-razol-4-yl]-(octa-hydro-quinolin-1-yl)-meth-anone]	59 nM
Cn1ncc(C(=O)N2CCCC3CCCCC32)c1-c1cccc(C=O)c1 (stereo not shown) [Example 21, 3-[2-Methyl-4-(octa-hydro-quinoline-1-carbo-nyl)-2H-pyra-zol-3-yl]-benzaldehyde]	1000 nM
Cn1ncc(C(=O)N2CCCC3CCCCC32)c1-c1cccc(C(F)(F)F)c1 (stereo not shown) [Example 49, [1-Methyl-5-(3-tri-fluoromethyl-phenyl)-1H-py-razol-4-yl]-(octa-hydro-quinolin-1-yl)-meth-anone]	160 nM
